Data reported in ChEMBL document CHEMBL5223104, “Discovery of triazenyl triazoles as Nav1.1 channel blockers for treatment of epilepsy” (Bioorg Med Chem Lett, 2022).
The source made the active and inactive calls. No cut-off for these calls is given here.

Legend:
[1] = molecular target: Sodium channel protein type 1 subunit alpha (Homo sapiens) (UniProt P35498); assay: Modulator activity at human Nav1.1 expressed in human Flp-In-T-REx-293 cells assessed as half activation potential at 100 uM measured at holding potential of -120 mV by whole cell patch clamp electrophysiology assay; assay type: cell-based
[2] = molecular target: Sodium channel protein type 1 subunit alpha (Homo sapiens) (UniProt P35498); assay: Modulator activity at human Nav1.1 expressed in human Flp-In-T-REx-293 cells assessed as change in half activation potential at 100 uM measured at holding potential of -120 mV by whole cell patch clamp electrophysiology assay; assay type: cell-based
[3] = molecular target: Sodium channel protein type 1 subunit alpha (Homo sapiens) (UniProt P35498); assay: Modulator activity at human Nav1.1 expressed in human Flp-In-T-REx-293 cells assessed as half inactivation potential at 100 uM by whole cell patch clamp electrophysiology assay; assay type: cell-based
[4] = molecular target: Sodium channel protein type 1 subunit alpha (Homo sapiens) (UniProt P35498); assay: Modulator activity at human Nav1.1 expressed in human Flp-In-T-REx-293 cells assessed as change in half inactivation potential at 100 uM by whole cell patch clamp electrophysiology assay; assay type: cell-based
Mus musculus [5] = assay: Anti-seizure activity against PTZ-induced ICR mouse seizure model assessed as decrease in seizure severity stage at 50 mg/kg, IG incubated for 1 hrs followed by PTZ stimulation and measured <30 mins; assay type: functional, organism-based; settings: time < 1.5 hrs
Mus musculus [6] = assay: Anti-seizure activity against PTZ-induced ICR mouse seizure model assessed as increase in survival rate at 50 mg/kg, IG incubated for 1 hrs followed by PTZ stimulation and measured <30 mins; assay type: functional, organism-based; settings: time < 1.5 hrs
Mus musculus [7] = assay: Anti-seizure activity against ICR mouse […] assessed as decrease in seizure stage at 50 mg/kg, IG incubated for 1 hrs followed by PTZ stimulation; assay type: functional, organism-based
Mus musculus [8] = assay: Anti-seizure activity against PTZ-induced ICR mouse seizure model assessed as increase in average latency to stage 6 at 50 mg/kg, IG incubated for 1 hrs followed by PTZ stimulation and measured <30 mins; assay type: functional, organism-based; settings: time < 1.5 hrs
Mus musculus [9] = assay: Anti-seizure activity against PTZ-induced ICR mouse seizure model assessed as increase in average latency to stage 2 at 50 mg/kg, IG incubated for 1 hrs followed by PTZ stimulation and measured <30 mins; assay type: functional, organism-based; settings: time < 1.5 hrs
[10] = Half life in Sprague-Dawley rat at 10 mg/kg, iv; assay type: ADME, organism-based; settings: in vivo
Mus musculus [11] = assay: Anti-seizure activity against ICR mouse […] assessed as decrease in tonic clonic seizure duration at 50 mg/kg, IG incubated for 1 hrs followed by PTZ stimulation; assay type: functional, organism-based
Mus musculus [12] = assay: Anti-seizure activity against ICR mouse […] assessed as increase in survival rate at 50 mg/kg, IG incubated for 1 hrs followed by PTZ stimulation; assay type: functional, organism-based
[13] = Apparent volume of distribution during terminal phase in Sprague-Dawley rat at 10 mg/kg, iv; assay type: ADME, organism-based; settings: in vivo
[14] = Oral bioavailability in Sprague-Dawley rat at 50 mg/kg; assay type: ADME, organism-based; settings: in vivo
[15] = AUClast in Sprague-Dawley rat plasma at 10 mg/kg, iv; assay type: ADME, organism-based; parameters: dose 10 mg/kg, route iv; settings: in vivo
[16] = Tmax in Sprague-Dawley rat at 10 mg/kg, iv; assay type: ADME, organism-based; settings: in vivo
[17] = Cmax in Sprague-Dawley rat at 10 mg/kg, iv; assay type: ADME, organism-based; parameters: dose 10 mg/kg, route iv; settings: in vivo
[18] = Half life in Sprague-Dawley rat at 50 mg/kg, po; assay type: ADME, organism-based; settings: in vivo
Mus musculus [19] = assay: Anti-seizure activity against ICR mouse […] assessed as increase in latency duration in stage 3 at 50 mg/kg, IG incubated for 1 hrs followed by PTZ stimulation; assay type: functional, organism-based
[20] = Cmax in Sprague-Dawley rat at 50 mg/kg, po; assay type: ADME, organism-based; parameters: dose 50 mg/kg, route po; settings: in vivo
[21] = Apparent volume of distribution during terminal phase in Sprague-Dawley rat at 50 mg/kg, po; assay type: ADME, organism-based; settings: in vivo, read-out: Vz/F
[22] = AUClast in Sprague-Dawley rat plasma at 50 mg/kg, po; assay type: ADME, organism-based; parameters: dose 50 mg/kg, route po; settings: in vivo
[23] = Tmax in Sprague-Dawley rat at 50 mg/kg, po; assay type: ADME, organism-based; settings: in vivo
[24] = Apparent clearance during terminal phase in Sprague-Dawley rat at 10 mg/kg, iv; assay type: ADME, organism-based; settings: in vivo
[25] = Apparent clearance during terminal phase in Sprague-Dawley rat at 50 mg/kg, po; assay type: ADME, organism-based; settings: in vivo

In the case of `NC(=O)c1cn(Cc2c(F)cccc2F)nn1`, the V1/2 [1] is reported as -41.3 mV, the delta(V1/2) [2] is reported as -7.39 mV and the V1/2 [3] is reported as -66.7 mV. It also gave a delta(V1/2) [4] of -7.01 mV.
Work on `CN(C)/N=N/c1c(C(N)=O)nnn1-c1c(F)cccc1F` yielded a V1/2 [1] of -35.6 mV, a delta(V1/2) [2] of -1.09 mV and a V1/2 [3] of -64.3 mV. The delta(V1/2) [4] was -4.24 mV.
Work on `CN(C)/N=N/c1c(C(N)=O)nnn1Cc1ccc(F)cc1F` yielded a V1/2 [1] of -36.5 mV, a delta(V1/2) [2] of -4.15 mV and a V1/2 [3] of -63.1 mV. For the same compound, the delta(V1/2) [4] was -4.36 mV.
In the case of `CN(C)/N=N/c1c(C(N)=O)nnn1Cc1ccccc1`, the V1/2 [1] is reported as -43.2 mV, the delta(V1/2) [2] is reported as -1.5 mV and the V1/2 [3] is reported as -64.2 mV. The delta(V1/2) [4] was -3.79 mV.
For `CN(C)/N=N/c1c(C(N)=O)nnn1Cc1ccccc1F`, the V1/2 [1] was -30.9 mV, the delta(V1/2) [2] was -3.11 mV and the V1/2 [3] was -66.6 mV. It also gave a delta(V1/2) [4] of -4.73 mV.
For `CN(C)/N=N/c1c(C(N)=O)nnn1Cc1ccccc1Cl`, the V1/2 [1] was -42.7 mV, the delta(V1/2) [2] was -1.7 mV and the V1/2 [3] was -62.9 mV. The delta(V1/2) [4] was -3.13 mV.
With `CNC(=O)c1nnn(Cc2c(F)cccc2F)c1/N=N/N(C)C` the V1/2 [1] was -39.5 mV, the delta(V1/2) [2] was -4.56 mV and the V1/2 [3] was -69.6 mV. For the same compound, the delta(V1/2) [4] was -6.54 mV.
Compound `CN(C)/N=N/c1c(C(N)=O)nnn1Cc1ccc(F)cc1` has a V1/2 [1] of -39 mV, a delta(V1/2) [2] of -0.99 mV and a V1/2 [3] of -62 mV. It also gave a delta(V1/2) [4] of -4 mV.
In the case of `CN(C)/N=N/c1c(C(=O)NCc2ccccc2)nnn1Cc1c(F)cccc1F`, the V1/2 [1] is reported as -36.2 mV, the Activity (Mus musculus [5]) is reported as “Active” and the delta(V1/2) [2] is reported as 1.95 mV. For the same compound, the V1/2 [3] was -78.8 mV, the Activity (Mus musculus [6]) was “Active” and the Activity (Mus musculus [7]) was “inactive”. The Activity (Mus musculus [8]) was “Active”, the delta(V1/2) [4] was -11.3 mV and the Activity (Mus musculus [9]) was “Active”.
`CN(C)/N=N/c1c(C(=O)NC2CC2)nnn1Cc1c(F)cccc1F` showed a V1/2 [1] of -32.4 mV, a delta(V1/2) [2] of -2.85 mV and a V1/2 [3] of -64.2 mV. It also gave a delta(V1/2) [4] of -3.87 mV.
For `CN(C)/N=N/c1c(C(N)=O)nnn1Cc1c(F)cccc1F`, the t1/2 [10] was 11.4 min, the V1/2 [1] was -46.1 mV and the Activity (Mus musculus [11]) was “Active”. For the same compound, the Activity (Mus musculus [12]) was “Active”, the Vz/F [13] was 0.93 L/kg and the Activity (Mus musculus [5]) was “Active”. The bioavailability [14] was 34.3%, the AUClast [15] was 3190 ng·h/mL and the Tmax [16] was 10.2 min. It also gave a Cmax [17] of 5203.99 ng/mL, a delta(V1/2) [2] of -1.81 mV and a V1/2 [3] of -69.8 mV. For the same compound, the t1/2 [18] was 63 min, the Activity (Mus musculus [19]) was “Active” and the Activity (Mus musculus [6]) was “Active”. For the same compound, the Cmax [20] was 4496.74 ng/mL, the Activity (Mus musculus [7]) was “Active” and the Activity (Mus musculus [8]) was “Active”. It also gave a Vd/F [21] of 13.6 L/kg, a delta(V1/2) [4] of -10.1 mV and an AUClast [22] of 5460 ng·h/mL. The Tmax [23] was 10.2 min, the Activity (Mus musculus [9]) was “Active” and the CLz/F [24] was 54.2 mL/min/kg. For the same compound, the CLz/F [25] was 169 mL/min/kg.
`COC(=O)CCCNC(=O)c1nnn(Cc2c(F)cccc2F)c1/N=N/N(C)C` showed a V1/2 [1] of -35.7 mV, a delta(V1/2) [2] of -1.56 mV and a V1/2 [3] of -71.3 mV. For the same compound, the delta(V1/2) [4] was -4.72 mV.
Work on `Cc1ccc(Cn2nnc(C(N)=O)c2/N=N/N(C)C)cc1` yielded a V1/2 [1] of -45.4 mV, a delta(V1/2) [2] of -1.05 mV and a V1/2 [3] of -66.2 mV. It also gave a delta(V1/2) [4] of -3.93 mV.
`CN(C)/N=N/c1c(C(N)=O)nnn1CCc1c(F)cccc1F` showed a V1/2 [1] of -31.9 mV, a delta(V1/2) [2] of -2.65 mV and a V1/2 [3] of -61.5 mV. The delta(V1/2) [4] was -0.74 mV.
With `CN(C)/N=N/c1c(C(=O)Nc2ccccc2)nnn1Cc1c(F)cccc1F` the V1/2 [1] was -36.5 mV, the delta(V1/2) [2] was -1.64 mV and the V1/2 [3] was -73 mV. It also gave a delta(V1/2) [4] of -5.55 mV.
